The values that follow come from patent US20070004652A1, “Treatment of occlusive thrombosis” (Mars, Incorporated, priority 2005, published 2007).

Entries after “also recorded” stand apart in the source; their conditions may differ.

Test [1] relates to tPA mRNA expression in human umbilical vein endothelial cells (HUVEC). Nature of the test: Taqman gene expression assay, tPA mRNA in HUVEC. The class given is cell-based. The note with it: 5 μM, 0.5 to 24 hours, FIG. 1A. As for the experimental part: (§1) Human umbilical vein endothelial cells (HUVEC) were cultured in an endothelium-specific, 2% serum-containing, growth factor-supplemented, antibiotic-free culture medium. Cryo-preserved cells from a single, donor in passage 1 or 2 were directly seeded into fibronectin-coated 6 well plates at a seeding density of 5000 cells/cm^2 and cultured without sub-culturing using standard cell culture conditions. 50% of the medium was replaced with fresh medium every 24 h until confluence. Cells were treated with the B1 dimer at a final concentration of μ5 M for 0.5, 2, 4, and 24 hours, respectively, and mRNA was isolated with a Qiagen mRNA Isolations System. cDNA was synthesized from mRNA samples using a HPLC-purified T7 Oligo(dT) primer and SuperScript II reverse transcriptase enzyme (Invitrogen). The ensuing cDNA samples were purified using a Qiagen PCR purification system. The cDNA templates were added to standardized Taqmang® Gene Expression Assays (Applied Biosystems) reactions mixtures and a Real-Time PCR was performed using standardized thermo-cycling conditions. An absolute quantification method of analyzing gene expression levels was used on triplicate reactions of each sample, and amplification plots generated by the Applied Biosystems 7900HT Fast Real-Time PCR System were analyzed using ABI Prism SDS v2.1 software.

Test [2] relates to uPA mRNA expression in human umbilical vein endothelial cells (HUVEC). Nature of the test: Taqman gene expression assay, uPA mRNA in HUVEC. The class given is cell-based. The conditions noted are these: 5 μM, 0.5 to 24 hours, FIG. 1B. The protocol: as §1
The test system of test [3] is PAI mRNA expression in human umbilical vein endothelial cells (HUVEC). The experiment in a line: Taqman gene expression assay, PAI mRNA in HUVEC. The class given is cell-based. The conditions noted are these: 5 μM, 0.5 to 24 hours, FIG. 1C. The protocol:
as §1

A further test relates to tPA release from HUVEC. The experiment in a line: tPA release from HUVEC, tPA activity in culture medium (ELISA-based assay). The class given is cell-based, human. The protocol:
HUVEC cultures were established as detailed above, by seeding HUVEC into fibronectin-coated 6 well plates at a seeding density of 5000 cells/cm^2. Cells were cultured without sub-culturing using standard cell culture conditions. 50% of the medium was replaced with fresh medium every 24 h. […] The remaining medium was collected and the weight was recorded for subsequent activity calculations (for calculation purposes we assumed that 1 g of medium=1 mL). tPA and PAI release was measured as the activity of the respective proteins in the collected media using an ELISA-based assay [Innovative Research Inc., Southfield, Mich., USA] in accordance with the manufacturer's instructions.

The test system of the next test is PAI release from HUVEC. The experiment in a line: PAI activity in HUVEC culture medium (ELISA-based assay). The class given is cell-based, human. The conditions noted are these: 24 h, not quite statistically significant (P=0.061, One Way ANOVA). As for the experimental part:
(§2) HUVEC cultures were established as detailed above, by seeding HUVEC into fibronectin-coated 6 well plates at a seeding density of 5000 cells/cm^2. Cells were cultured without sub-culturing using standard cell culture conditions. 50% of the medium was replaced with fresh medium every 24 h. Following an incubation of the HUVECs with the TC at a concentration of 5 μM for 24 h, an aliquote of the media was collected and analyzed for its content of tPA, and PAI, respectively. The remaining medium was collected and the weight was recorded for subsequent activity calculations (for calculation purposes we assumed that 1 g of medium=1 mL). tPA and PAI release was measured as the activity of the respective proteins in the collected media using an ELISA-based assay [Innovative Research Inc., Southfield, Mich., USA] in accordance with the manufacturer's instructions.

Test [4] relates to total PAI in HUVEC medium. Nature of the test: Total PAI (free and tPA/uPA-bound) in HUVEC culture medium. The class given is cell-based, human. The note with it: 24 h, 5 μM as compared to 1 μM, FIG. 3. The protocol:
as §2

The next test has as its system plasma tPA. Nature of the test: Plasma tPA activity after ingestion by human volunteers. The class given is in vivo. The note with it: for plasma tPA activity, time course: non-transformed (raw) data. The protocol: (§3) The test compound was administered to human volunteers in accordance with IRB-approved protocols and as detailed in the previous section of this report. The activity of tPA, uPA, and PAI in plasma was measured using an ELISA-based assay [Innovative Research Inc., Southfield, Mich., USA] in accordance with the manufacturer's instructions.

In a further test the test system is plasma tPAtotal. The experiment in a line: Plasma tPAtotal (free and bound tPA) after ingestion by human volunteers. The class given is in vivo. The note with it: raw data, One Way ANOVA P=0.769. As for the experimental part: as §3
In addition to measurements of plasma tPA activity, we determined the amount of tPAtotal in plasma (tPAtotal=free and bound tPA).

The subject of the next test is plasma uPA. The experiment in a line: Plasma uPA activity after ingestion by human volunteers. The class given is in vivo. The conditions noted are these: raw data. The protocol: as §3
For another test, the system named is plasma PAI. The experiment in a line: Plasma PAI activity after ingestion by human volunteers. The class given is in vivo. As for the experimental part: as §3
A short description of test [5]: Closure time after ingestion by human volunteers. The class given is in vivo. The conditions noted are these: FIG. 4.
For another test, the system named is human endothelial cells. The experiment in a line: Genomic investigation (Affymetrix microarray, Taqman validation) of gene expression of human endothelial cells. The conditions noted are these: human endothelial cells in vitro and human plasma. The class given is cell-based. The source says: We have employed a genomic approach to comprehensively investigate the effects of (−)-epicatechin (including a mixture of (−)-epicatechin metabolites), procyanidin dimer B1, and procyanidin dimer A2 on the gene expression of human endothelial cells in vitro. Following the completion of an extensive evaluation utilizing an Affymetrix Oligonucleotide Microarray Gene Expression Analysis System, we have subsequently validated our findings using Taqman® Gene Expression Assays, and confirmed the ensuing data by directly assessing amounts or activities of the target proteins in cultured human endothelial cells and human plasma, respectively.

For the compound `Oc1cc(O)c2c(c1)O[C@H](c1ccc(O)c(O)c1)[C@H](O)[C@H]2c1c(O)cc(O)c2c1O[C@H](c1ccc(O)c(O)c1)[C@@H](O)C2` [B1 dimer, procyanidin dimer B1], the “mRNA expression for tPA” value in [1] was “time-dependent increases”. Moreover, the “mRNA expression for uPA” value in [2] is “time-dependent increases”. Moreover, the “expression of PAI mRNA” value in test [3] is on record as “decreases”. Further, in the test on tPA release from HUVEC (24 h, 5 μM and 10 μM, One Way ANOVA followed by Tukey Test), the “increases in media-present tPA activity versus vehicle” value is given as “significantly different from vehicle treatments”. Besides, the “tPA activity in the cell culture medium” value in the test with tPA release from HUVEC (24 hours of incubation, different concentrations, FIG. 2) was “dose-dependent increase; also recorded: increase in tPA activity”. The “activity of PAI in the media” value in the test with PAI release from HUVEC is “dose-dependant decrease”. The “total PAI (free and tPA/uPA-bound) in medium” value in test [4] is recorded as “modulate; also recorded: increase in total PAI”. Further, in the test on plasma tPA (n=4), the “increase in tPAmax (mean maximal increase in plasma tPA activity)” value turned out to be 46% and the “mean tPAmax” value is on record as 261.4+/−39.4 mU/mL. In addition, the “plasma tPA activity, time course” value in the test with plasma tPA (One Way ANOVA P=0.333) is reported as “time-dependent increase”. The “plasma tPA activity, time course” value in the test on plasma tPA (One Way ANOVA P=0.333, listed as B1) was “increases plasma tPA activity”. Also, the “plasma tPAtotal levels, time-dependent change” value in the test with plasma tPAtotal is “neither the ingestion of the B1 dimer nor that of the vehicle caused a time-dependent change”. Besides, the “plasma uPA activity, time-dependent change” value in the test on plasma uPA is recorded as “did not cause a statistically significant, time-dependant change”. The “plasma PAI activity, time-dependent change” value with plasma PAI (raw data) is given as “did not cause a statistically significant, time-dependant change”. Further, the “PAI plasma activity, normalized to individual baselines” value in the test with plasma PAI (statistical significance at 4 h post-ingestion (P=0.011, t-test)) is reported as “time-dependently decreased”. For the same compound, the “closure time as compared to vehicle (water)” value in test [5] is “augmentation of the closure time”. Further, the “expression, secreting or activity of various proteins related to cardiovascular function” value (“expression, secreting or activity” for short) with human endothelial cells is given as “modulated”.

As for `Oc1cc(O)c2c(c1)O[C@@]1(c3ccc(O)c(O)c3)Oc3cc(O)c4c(c3[C@@H]2[C@H]1O)O[C@H](c1ccc(O)c(O)c1)[C@H](O)C4` [A2 dimer, epicatechin-(4β→8; 2β→O→7)-epicatechin], the “expression, secreting or activity” value with human endothelial cells is reported as “modulated”.

Regarding `Oc1cc(O)c2c(c1)O[C@H](c1ccc(O)c(O)c1)[C@H](O)C2` [(−)-epicatechin], the “expression, secreting or activity” value with human endothelial cells is recorded as “modulated”.
